Ten compounds from patent publication EP4772505A1, “COMPOUND FOR DEGRADING ANDROGEN RECEPTOR AND MEDICAL USE THEREOF” (Ubix Therapeutics, Inc., priority 2023, dated 2025) can be followed below.

As usually defined, the DC50 is the midpoint of the concentration-degradation curve.

Like-named read-outs stand apart in the source and are kept apart here.

In this assay the target is T1, Androgen Receptor (AR) (Homo sapiens, UniProt P10275).
T1 sequence (P10275 1-920): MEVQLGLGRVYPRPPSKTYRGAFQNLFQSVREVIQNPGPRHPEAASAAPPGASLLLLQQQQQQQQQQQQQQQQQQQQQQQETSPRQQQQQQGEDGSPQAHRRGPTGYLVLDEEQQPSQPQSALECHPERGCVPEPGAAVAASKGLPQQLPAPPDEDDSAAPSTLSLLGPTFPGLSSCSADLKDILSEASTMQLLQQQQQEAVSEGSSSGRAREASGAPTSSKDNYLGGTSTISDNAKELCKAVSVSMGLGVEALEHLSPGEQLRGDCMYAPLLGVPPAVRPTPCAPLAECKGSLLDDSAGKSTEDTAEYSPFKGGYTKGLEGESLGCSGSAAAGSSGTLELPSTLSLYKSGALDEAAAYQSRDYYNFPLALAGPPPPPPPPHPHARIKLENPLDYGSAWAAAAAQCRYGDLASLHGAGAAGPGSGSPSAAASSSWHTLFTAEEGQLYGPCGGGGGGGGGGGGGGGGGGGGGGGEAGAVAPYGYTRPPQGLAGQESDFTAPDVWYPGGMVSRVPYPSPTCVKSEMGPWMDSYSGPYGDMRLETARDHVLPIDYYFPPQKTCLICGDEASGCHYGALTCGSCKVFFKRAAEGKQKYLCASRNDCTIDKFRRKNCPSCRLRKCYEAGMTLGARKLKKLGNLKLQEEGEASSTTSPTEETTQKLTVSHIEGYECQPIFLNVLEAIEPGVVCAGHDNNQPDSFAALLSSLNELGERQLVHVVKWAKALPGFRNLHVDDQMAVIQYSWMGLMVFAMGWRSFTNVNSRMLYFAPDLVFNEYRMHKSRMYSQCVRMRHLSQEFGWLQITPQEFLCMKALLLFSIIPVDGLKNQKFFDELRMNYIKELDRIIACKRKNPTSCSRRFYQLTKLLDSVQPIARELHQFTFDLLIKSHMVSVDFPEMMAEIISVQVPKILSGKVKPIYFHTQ
Description: Measurement of AR protein degradation in VCaP cells by Western blotting. The format is cell-based. Also noted: endogenous in cells; host or cells: VCaP. The following applies: for Dmax at 0.01 µM / Dmax at 0.1 µM: read-out: AR degradation in VCaP cells (%); for Dmax: read-out: AR degradation in VCaP cells Dmax (%); for DC50: read-out: AR degradation in VCaP cells DC50. The procedure:
The amount of AR protein present in LNCaP or VCaP cells was measured after treating them with the synthesized compound. The amount of AR protein was measured using Western blotting. The protocol for the experiments using LNCaP or VCaP cells was as follows.
[Culture] LNCaP cells were resuspended in RPMI1640 medium + HEPES (Hyclone, SH30255.01), 10% FBS (Hyclone, SV30207.02), and 1% Penicillin-streptomycin (Welgene, LS 202-02). 3 x 10^5 cells/mL were seeded in 12-well plates (1 mL per well) and cultured for 3 days. VCaP cells were resuspended in IMDM MEDIUM (Hyclone, SH30228.01), 20% FBS (Hyclone, SV30207.02), and 1% Penicillin-streptomycin (Welgene, LS 202-02), seeded at 9 x 10^5/mL in 1 mL per 12-well plate, and cultured for 3 days.
[Compound Treatment] 10 µL of 100x stock (e.g., 0.1, 1, 10 µM) compound solution at the final compound treatment concentration (e.g., 0.001, 0.01, 0.1 µM) was added to each well in 1 mL media, and cells were harvested after 20 hours. For DC50 measurement, 100x stock (0.01, 0.1, 1, 10, 100, 1000 µM) compound solutions at the final compound treatment concentration (0.0001, 0.001, 0.01, 0.1, 1, 10 µM) were used.
[Cell lysis] The cell pellet was suspended using 1% SDS lysis buffer (50 mM Tris, 1 mM EDTA, 1% SDS, pH 8.0, 0.5 mM PMSF, 1x Protease/Phosphatase inhibitor Cocktail (Cell Signaling Technology, 5872S)), and sonication (70% AMP, 10 cycles (30 sec ON/59 sec OFF)) was performed. After centrifugation at 4°C and 20,000 g for 20 minutes, the cell lysate was obtained and transferred to a new tube.
[Protein Quantification] A BCA protein assay (SMART™ BCA Protein Assay Kit, iNtRON Biotechnology, 21071) was performed using a 96-well microplate. 5 µL of cell lysate and 5 µL of 1% SDS lysis buffer were added to each well of the 96-well plate, followed by an additional 200 µL of BCA reagent (Reagent A: Reagent B = 50:1). The wells were incubated at 37°C for 30 minutes and cooled to room temperature for 10 minutes. After shaking for 10 seconds, the absorbance was measured at a wavelength of 562 nm. The unknown protein concentration was determined using a BSA standard curve (0, 0.125, 0.25, 0.5, 1, 2 mg/mL). Western blotting samples were prepared by mixing cell lysate, 1% SDS lysis buffer, 4x NuPAGE™ LDS Sample buffer (Invitrogen, NP0008), and 10X NuPAGE™ Sample Reducing Agent (Invitrogen, NP0009) and boiling at 70°C for 10 minutes.
[Electrophoresis] 10 µg of protein sample was loaded into each well of a NuPAGE™ 4 to 12%, Bis-Tris, 1.0 mm Mini Protein Gel, 15-well, 17-well, or 26-well (Invitrogen, NP0323BOX, NP0329BOX, or WG1403BOX) and electrophoresed for 40 minutes using NuPAGE™MES SDS Running Buffer (Invitrogen, NP0002) at 200 V (constant V).
[Transfer] Transfer was performed for 15 or 18 minutes using the electrophoresed gel and the Trans-Blot® Turbo™ Transfer Starter System (Bio-RAD, #17001918, Mini Nitrocellulose) at 1.3 A (constant A) and 25 V (limit V). To confirm protein transfer, 15 mL of Ponceau S solution (Sigma, P7170-1L) was used to stain for 1 minute, and then washed to check the degree of transfer.
[Blocking] The membrane for AR and GAPDH detection was blocked with 5% skim milk/0.2% TBST (Skim milk: BD, 232100/ 20X TBS: Biosesang, TR2008-100-00/ 10% Tween 20 Solution: Bio-RAD, #161-0781) for 45 minutes.
[Antibodies and Detection] Primary AR antibody (Androgen Receptor: CST, 5153S) was mixed with 5% skim milk/0.2% TBST at a ratio of 1:1,000 and reacted at room temperature for 3 hours or at 4°C overnight. Primary GAPDH antibody (CST, 2118S) was mixed with 5% skim milk/0.2% TBST at a ratio of 1:2,000 and reacted at room temperature for 3 hours or at 4°C overnight. Afterwards, TBST (0.2% Tween 20) was used for washing three times every 5 minutes. Secondary antibody to AR antibody, Anti-rabbit IgG, HRP-linked Antibody (CST, 7074S), was mixed with 5% skim milk/0.2% TBST at a ratio of 1:5,000 and reacted at room temperature for 45 minutes. […]
On the technique in general: In western blotting, separated proteins are transferred to a membrane and probed.

[1] abbreviates: 10 nM compound, 20 hours, VCaP cells.
[2] abbreviates: 100 nM compound, 20 hours, VCaP cells.

`N#Cc1ccc(N2CCC(C(=O)Nc3ccc(OC4CCN(CC5CCN(c6ccc(N[C@H]7CCC(=O)NC7=O)cc6F)CC5)CC4)cn3)CC2)cc1C(F)(F)F` [Example 2, (S)-1-(4-cyano-3-(trifluoromethyl)phenyl)-N-(5-((1-((1-(4-((2,6-dioxopiperidin-3-yl)amino)-2-fluorophenyl)piperidin-4-yl)methyl)piperidin-4-yl)oxy)pyridin-2-yl)piperidine-4-carboxamide]: under “VCaP, 20 h”, the Dmax at 0.01 µM came to 83% and the Dmax at 0.1 µM stood at 99%. Where the note is “VCaP”, the Dmax was 99%. In addition, the DC50 (VCaP cells, 20 hours) amounted to 0.19 nM.
Take `N#Cc1ccc(N2CCC(C(=O)Nc3ccc(OC4CCN(CC5CCN(c6ccc(NC7CCC(=O)NC7=O)cc6F)CC5)CC4)nn3)CC2)c(F)c1Cl` (stereo not drawn) [Example 15, 1-(3-chloro-4-cyano-2-fluorophenyl)-N-(6-((1-((1-(4-((2,6-dioxopiperidin-3-yl)amino)-2-fluorophenyl)piperidin-4-yl)methyl)piperidin-4-yl)oxy)pyridazin-3-yl)piperidine-4-carboxamide]: for the setting “VCaP, 20 h”, the Dmax at 0.01 µM turned out to be 98% and the Dmax at 0.1 µM was determined as 100%.
Consider `N#Cc1ccc(N2CCC(C(=O)Nc3ccc(OC4CCN(CC5CCN(c6ccc(N[C@@H]7CCC(=O)NC7=O)cc6F)CC5)CC4)cn3)CC2)cc1C(F)(F)F` [Example 3, (R)-1-(4-cyano-3-(trifluoromethyl)phenyl)-N-(5-((1-((1-(4-((2,6-dioxopiperidin-3-yl)amino)-2-fluorophenyl)piperidin-4-yl)methyl)piperidin-4-yl)oxy)pyridin-2-yl)piperidine-4-carboxamide], for which, where the note is “VCaP, 20 h”, the Dmax at 0.01 µM was 72% and the Dmax at 0.1 µM is 96%.
As to `COc1cc(N2CCC(C(=O)Nc3ccc(OC4CCN(CC5CCN(c6ccc(NC7CCC(=O)NC7=O)cc6F)CC5)CC4)nn3)CC2)ccc1C#N` (stereo not drawn) [Example 16, 1-(4-cyano-3-methoxyphenyl)-N-(6-((1-((1-(4-((2,6-dioxopiperidin-3-yl)amino)-2-fluorophenyl)piperidin-4-yl)methyl)piperidin-4-yl)oxy)pyridazin-3-yl)piperidine-4-carboxamide], under setting [1], the Dmax at 0.01 µM worked out at 99%. Moreover, under setting [2], the Dmax at 0.1 µM is 100%.
For `COc1cc(N2CCC(C(=O)Nc3ccc(OC4CCN(CC5CCN(c6ccc(NC7CCC(=O)NC7=O)cc6F)CC5)CC4)cn3)CC2)ccc1C#N` (stereo not drawn) [Example 13, 1-(4-cyano-3-methoxyphenyl)-N-(5-((1-((1-(4-((2,6-dioxopiperidin-3-yl)amino)-2-fluorophenyl)piperidin-4-yl)methyl)piperidin-4-yl)oxy)pyridin-2-yl)piperidine-4-carboxamide], under setting [1], the Dmax at 0.01 µM came out at 95%. Also, under setting [2], the Dmax at 0.1 µM was 100%.
For `N#Cc1ccc(N2CCC(C(=O)Nc3ccc(OC4CCN(CC5CCN(c6ccc(N[C@@H]7CCC(=O)NC7=O)cc6F)CC5)CC4)cn3)CC2)cc1Cl` [Example 10, (R)-1-(3-chloro-4-cyanophenyl)-N-(5-((1-((1-(4-((2,6-dioxopiperidin-3-yl)amino)-2-fluorophenyl)piperidin-4-yl)methyl)piperidin-4-yl)oxy)pyridin-2-yl)piperidine-4-carboxamide], for the setting “VCaP, 20 h”, the Dmax at 0.01 µM came out at 85% and the Dmax at 0.1 µM is 99%.
The matching figures for `N#Cc1ccc(N2CCC(C(=O)Nc3ccc(OC4CCN(CC5CCN(c6ccc(NC7CCC(=O)NC7=O)cc6F)CC5)CC4)cn3)CC2)c(F)c1Cl` (stereo not drawn) [Example 12, 1-(3-chloro-4-cyano-2-fluorophenyl)-N-(5-((1-((1-(4-((2,6-dioxopiperidin-3-yl)amino)-2-fluorophenyl)piperidin-4-yl)methyl)piperidin-4-yl)oxy)pyridin-2-yl)piperidine-4-carboxamide]: 94% and 98%.
Taken in the same sequence, the figures for `N#Cc1ccc(N2CCC(C(=O)Nc3ccc(OC4CCN(CC5CCN(c6ccc(NC7CCC(=O)NC7=O)cc6F)CC5)CC4)nn3)CC2)cc1C(F)(F)F` (stereo not drawn) [Example 7, 1-(4-cyano-3-(trifluoromethyl)phenyl)-N-(6-((1-((1-(4-((2,6-dioxopiperidin-3-yl)amino)-2-fluorophenyl)piperidin-4-yl)methyl)piperidin-4-yl)oxy)pyridazin-3-yl)piperidine-4-carboxamide] were 94% and 100%.
`N#Cc1ccc(N2CCC(C(=O)Nc3ccc(OC4CCN(CC5CCN(c6ccc(NC7CCC(=O)NC7=O)cc6F)CC5)CC4)cn3)CC2)cc1Cl` (stereo not drawn) [Example 8, 1-(3-chloro-4-cyanophenyl)-N-(5-((1-((1-(4-((2,6-dioxopiperidin-3-yl)amino)-2-fluorophenyl)piperidin-4-yl)methyl)piperidin-4-yl)oxy)pyridin-2-yl)piperidine-4-carboxamide]: where the note is “VCaP, 20 h”, the Dmax at 0.01 µM was found to be 94% and the Dmax at 0.1 µM was found to be 99%.
With `N#Cc1ccc(N2CCC(C(=O)Nc3ccc(OC4CCN(CC5CCN(c6ccc(N[C@H]7CCC(=O)NC7=O)cc6F)CC5)CC4)cn3)CC2)cc1Cl` [Example 9, (S)-1-(3-chloro-4-cyanophenyl)-N-(5-((1-((1-(4-((2,6-dioxopiperidin-3-yl)amino)-2-fluorophenyl)piperidin-4-yl)methyl)piperidin-4-yl)oxy)pyridin-2-yl)piperidine-4-carboxamide], for the setting “VCaP, 20 h”, the Dmax at 0.01 µM worked out at 94% and the Dmax at 0.1 µM is 99%. In addition, the Dmax (VCaP) worked out at 99%. Besides, the DC50 (VCaP cells, 20 hours) amounted to 0.1 nM.
